{"source": "patent US20050019923A1", "about": "“Dendrimers for use in targeted delivery” (priority 2001, published 2005)", "system": "A431 cell line", "test": "In vitro cytotoxicity assay (MTT)", "assay_type": "cell-based, human", "conditions": "4 h exposure, 72 h incubation", "protocol": "A human epidermoid carcinoma cell line (A431, ATCC CRL-1555) was maintained in Dulbecco's minimum essential medium (DMEM) supplemented with 10% foetal calf serum (FCS) and 2 mM glutamine (GibcoBRL, UK) at 10% CO2 and 37° C.\nPolypropylenimine dendrimer/dendrimer derivative formulation cytotoxicity was assessed by the measurement of the IC50 in a standard MTT (3-[4,5-dimethylthiazol-2-yl]-2,5-diphenyltetrazolium bromide thiazolyl blue—indicator dye) assay. Briefly, 96 well microtitre plates were seeded with 5000 cells per well and incubated for 24 hrs. Dilutions of the dendrimer/dendrimer—DNA formulations (100 μl) in tissue culture medium (Opti-Mem) were incubated with the cells for 4 h. The samples were then replaced with fresh DMEM daily and incubated for 72 h. After this period the indicator dye (50 μl, 50 mg ml^−1) was added to each well and incubated with the cells for 4 h in the dark. The medium and indicator dye were then removed and the cells lysed with dimethylsulphoxide (200 μl). After addition of Sorensen's glycine buffer (25 μl) the absorption was measured at 570 nm. Values were expressed as a percentage of the control to which no vesicles were added.", "data": [{"compound": "CCCCCCCC/C=C\\CCCCCCCC(=O)OCC(C[N+](C)(C)C)OC(=O)CCCCCCC/C=C\\CCCCCCCC.COS(=O)(=O)[O-]", "note": "(stereo not shown) [DOTAP, N-[1-(2,3-dioleoyloxy)propyl]-N,N,N-trimethylammonium methylsulphate]", "values": [{"measurement": "IC50, in vitro cytotoxicity", "value": 62, "unit": "µg/mL"}]}]}
